{"source": "patent US20140171455A1", "about": "“Reduction of Microglia-Mediated Neurotoxicity by Kv1.3 Inhibition” (The Regents of the University of California, priority 2011, published 2014)", "key": {"[1]": {"target": "T1, Kv1.3 (Mus musculus, UniProt P16390)", "T1 construct": "pharmacological characterization of currents from cultured microglia stimulated for 48 hours with AbO or LPS; endogenous in cells; host or cells: primary microglia cultured from newborn C57Bl/6 mice, stimulated 48 h with AbO or LPS", "T1 sequence (P16390 whole entry)": "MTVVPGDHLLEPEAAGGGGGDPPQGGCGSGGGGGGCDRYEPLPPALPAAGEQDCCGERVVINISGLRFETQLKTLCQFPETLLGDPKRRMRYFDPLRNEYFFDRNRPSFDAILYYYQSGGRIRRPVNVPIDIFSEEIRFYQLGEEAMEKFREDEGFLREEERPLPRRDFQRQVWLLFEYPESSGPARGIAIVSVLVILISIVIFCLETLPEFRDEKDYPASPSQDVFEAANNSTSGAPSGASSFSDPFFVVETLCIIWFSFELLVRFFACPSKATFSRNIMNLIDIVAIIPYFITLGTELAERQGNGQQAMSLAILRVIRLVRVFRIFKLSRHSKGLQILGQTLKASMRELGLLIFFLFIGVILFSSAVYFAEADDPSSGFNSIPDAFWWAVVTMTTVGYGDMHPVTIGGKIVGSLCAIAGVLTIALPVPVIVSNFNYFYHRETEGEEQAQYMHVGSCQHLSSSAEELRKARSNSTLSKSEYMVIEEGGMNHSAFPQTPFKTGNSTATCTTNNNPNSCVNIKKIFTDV", "test": "Whole-cell voltage-clamp of Kv currents in cultured stimulated microglia", "assay_type": "cell-based", "conditions": "read-out: IC50 on microglial Kv current", "description": "In order to determine if Kv1.3 is indeed functionally expressed in mouse microglia Applicants performed electrophysiological experiments on cultured mouse microglia in the whole-cell mode of the patch-clamp technique. Kv currents were elicited with 500 millisecond pulses from a holding-potential of −100 mV to +40 mV applied every 45 sec.\nMicroglia cultured from newborn C57B1/6 mice were treated with lipopolysaccharides (LPS) or AbO for 24 or 48 hrs. […] Kv currents were elicited by 500 ms voltage steps from −80 to 40 mV (representative traces on right)."}, "[2]": {"tested_on": "cultured mouse microglia", "test": "Abeta-induced activation of cultured mouse microglia (proliferation, morphology, NFkB, NO, TNF-alpha)", "assay_type": "cell-based", "description": "FIGS. 1A and 1B show data regarding AβO-induced NFκ-B and NO, respectively.\nTwo (2) hours after administration of the indicated treatment, the mouse brains were sectioned and immunostained with an antibody for p65 of NFκB to mark cells with NFκB activation. Numbers of p65-positive cells per 200 DAPI-labeled cells were determined.\n(§1) Measurements were made in the conditioned medium and normalized to the amount of total cellular protein in each culture. n=4-6, *p<0.001 compared with control, **p<0.001 compared with the “AβO” group. […] NO released by AβO-treated microglia is the major soluble mediator of AβO-induced microglial neurotoxicity."}, "[3]": {"tested_on": "AβO-stimulated cultured microglia", "test": "AbetaO-induced microglial neurotoxicity (cultured microglia)", "assay_type": "cell-based, mouse", "conditions": "co-treating AβO-stimulated cultured microglia; AβO 20 nM, PAP-1 1 μM", "text": "as §1"}, "[4]": {"tested_on": "hippocampal slices", "test": "Hippocampal slices: AbetaO-induced microglia activation and neuronal damage", "assay_type": "cell-based, mouse", "conditions": "AβO 20 nM, PAP-1 1 μM", "text": "Three consecutive hippocampal slices were obtained from mouse brain and from mice received the same indicated treatment. One slice was used for CD11b staining (green) for activated microglia (slices outlined by Hoechst stain), one for propidium iodide (PI) uptake, and one for Fluoro-Jade C stain for neuronal damage. DG: dentate gyrus."}, "[5]": {"tested_on": "microglia", "test": "Abeta uptake (phagocytosis) assay in microglia by flow cytometry", "assay_type": "cell-based", "conditions": "2 hrs pre-treatment", "text": "Using an Aβ uptake assay, Applicants pretreated microglia with either control (vehicle only), anti-SRA (scavenger receptor A) antibody, doxycycline or PAP-1. FIG. 2 is a bar graph showing cell-associated fluorescence as measured by flow cytometry after 2 hrs of such pre-treatment. (n=3, *p<0.01 and **p<0.001 compared with control)."}, "[6]": {"tested_on": "rat hippocampal slices (CA1 LTP)", "test": "CA1 LTP induction in rat hippocampal slices with AbO", "assay_type": "cell-based", "conditions": "PAP-1 10 μM pretreatment 30 min prior to AbO 50 nM; 45 min after HFS", "description": "FIG. 7 summarizes an experiment wherein, under control conditions, CA1 LTP was induced by high frequency stimulation (HFS), which consists of 4 trans of 100Hz basal intensity stimulation lasting for 1 s per train. In control (vehicle only) group, following the HFS, the amplitude or slope of fEPSP was increased to 209±28% of baseline at 45 min after HFS. The bath application of AbO (50 nM) for 10 min blocked the induction of LTP (126±6.7% of control). […] The mean of five consecutive measurements at the end of LTP induction (45 min) was normalized to the baseline (100%) which was the mean of five consecutive measurements just before the HFS."}, "[7]": {"conditions": "rats; cited from earlier work"}, "[8]": {"conditions": "rhesus macaques; cited from earlier work"}, "[9]": {"conditions": "cited from earlier work"}, "[10]": {"conditions": "rodents or primates; cited from earlier work"}}, "note": "Where two headings read alike, the source gives them in different places. Bridge positions count the residues as written; N and C are the ends. Peptide text beside a SMILES is read from it.", "data": [{"smiles": "CC[C@H](C)[C@H](NC(=O)[C@@H](N)[C@@H](C)O)C(=O)N[C@H](C(=O)N[C@@H](CC(N)=O)C(=O)N[C@H](C(=O)N[C@@H](CCCCN)C(=O)N[C@H]1CSSC[C@@H]2NC(=O)[C@H](CCCCN)NC(=O)[C@H](C)NC(=O)CNC(=O)[C@H](C)NC(=O)[C@H](CO)NC(=O)[C@H](CCC(N)=O)NC(=O)CNC(=O)[C@H](Cc3ccccc3)NC(=O)[C@H](CCC(N)=O)NC(=O)[C@H](C)NC(=O)[C@H](CCCCN)NC(=O)[C@@H]3CSSC[C@@H](C(=O)N[C@@H](Cc4ccc(O)cc4)C(=O)N4CCC[C@H]4C(=O)N[C@@H](Cc4c[nH]cn4)C(=O)O)NC(=O)[C@H](CCCCN)NC(=O)[C@H](CSSC[C@H](NC(=O)[C@H](CCC(N)=O)NC(=O)[C@H](CCCCN)NC(=O)[C@@H]4CCCN4C(=O)[C@H](CO)NC(=O)[C@H]([C@@H](C)O)NC1=O)C(=O)N[C@@H](CC(C)C)C(=O)N1CCC[C@H]1C(=O)N1CCC[C@H]1C(=O)N3)NC(=O)[C@H](CCCCN)NC(=O)CNC(=O)[C@H](CC(N)=O)NC(=O)[C@H](CCSC)NC2=O)C(C)C)[C@@H](C)CC", "note": "[MgTX] (H-TIINVKCTSPKQCLPPCKAQFGQSAGAKCMNGKCKCYPH-OH; disulfide 7-29, 13-34, 17-36 (inferred); N-terminus and C-terminus assumed)", "values": [{"measurement": "IC50", "setting": "[1]; cultured microglia stimulated for 48 hours with AbO", "value": 0.0797, "unit": "nM"}, {"measurement": "IC50", "setting": "[1]; cultured microglia stimulated for 48 hours with LPS", "value": 0.0789, "unit": "nM"}]}, {"smiles": "O=c1ccc2c(OCCCCOc3ccccc3)c3ccoc3cc2o1", "note": "[PAP-1, 5-(4-Phenoxybutoxy)psoralen]", "values": [{"measurement": "signs of microglia activation induced by AβO (proliferation, morphological transformation, NFκ-B activation, NO production)", "setting": "[2]; cultured mouse microglia, AβO 20 nM, PAP-1 1 μM", "value": "inhibited"}, {"measurement": "increased microglia release of tumor necrosis factor-α, NFκ-B activation and NO production induced by fAβ stimulation", "setting": "[2]; fAβ stimulation", "value": "blocked"}, {"measurement": "AβO-induced microglial neurotoxicity", "setting": "[3]", "value": "blocked"}, {"measurement": "AβO-induced microglia activation (CD11b staining)", "setting": "[4]", "value": "substantially reduced"}, {"measurement": "AβO-induced neuronal damage (propidium iodide uptake and Fluoro-Jade C staining)", "setting": "[4]", "value": "blocked"}, {"measurement": "Aβ cell-associated fluorescence (ability of microglia to phagocytose Aβ)", "setting": "[5]", "value": "did not impair"}, {"measurement": "inhibition by AbO of the induction of CA1 LTP", "setting": "[6]", "value": "prevented"}, {"measurement": "half-life", "setting": "[7]", "value": 3, "unit": "h"}, {"measurement": "half-life", "setting": "[8]", "value": 6.7, "unit": "h"}, {"measurement": "oral bioavailability", "setting": "[9]; in vivo, po", "value": "orally bioavailable"}, {"measurement": "brain concentrations versus plasma concentrations (crosses the blood brain barrier)", "setting": "[9]; pharmacokinetic studies", "value": "equal or slightly exceed plasma-concentrations"}, {"measurement": "long-term toxicity", "setting": "[10]", "value": "has not exhibited long-term toxicity"}]}]}
